Format in all cases: cell-based
The target in one experiment is T1, human TLR7 (Homo sapiens, UniProt Q9NYK1).
T1 construct: host or cells: HEK-Blue cells
T1 sequence (Q9NYK1 27-1049): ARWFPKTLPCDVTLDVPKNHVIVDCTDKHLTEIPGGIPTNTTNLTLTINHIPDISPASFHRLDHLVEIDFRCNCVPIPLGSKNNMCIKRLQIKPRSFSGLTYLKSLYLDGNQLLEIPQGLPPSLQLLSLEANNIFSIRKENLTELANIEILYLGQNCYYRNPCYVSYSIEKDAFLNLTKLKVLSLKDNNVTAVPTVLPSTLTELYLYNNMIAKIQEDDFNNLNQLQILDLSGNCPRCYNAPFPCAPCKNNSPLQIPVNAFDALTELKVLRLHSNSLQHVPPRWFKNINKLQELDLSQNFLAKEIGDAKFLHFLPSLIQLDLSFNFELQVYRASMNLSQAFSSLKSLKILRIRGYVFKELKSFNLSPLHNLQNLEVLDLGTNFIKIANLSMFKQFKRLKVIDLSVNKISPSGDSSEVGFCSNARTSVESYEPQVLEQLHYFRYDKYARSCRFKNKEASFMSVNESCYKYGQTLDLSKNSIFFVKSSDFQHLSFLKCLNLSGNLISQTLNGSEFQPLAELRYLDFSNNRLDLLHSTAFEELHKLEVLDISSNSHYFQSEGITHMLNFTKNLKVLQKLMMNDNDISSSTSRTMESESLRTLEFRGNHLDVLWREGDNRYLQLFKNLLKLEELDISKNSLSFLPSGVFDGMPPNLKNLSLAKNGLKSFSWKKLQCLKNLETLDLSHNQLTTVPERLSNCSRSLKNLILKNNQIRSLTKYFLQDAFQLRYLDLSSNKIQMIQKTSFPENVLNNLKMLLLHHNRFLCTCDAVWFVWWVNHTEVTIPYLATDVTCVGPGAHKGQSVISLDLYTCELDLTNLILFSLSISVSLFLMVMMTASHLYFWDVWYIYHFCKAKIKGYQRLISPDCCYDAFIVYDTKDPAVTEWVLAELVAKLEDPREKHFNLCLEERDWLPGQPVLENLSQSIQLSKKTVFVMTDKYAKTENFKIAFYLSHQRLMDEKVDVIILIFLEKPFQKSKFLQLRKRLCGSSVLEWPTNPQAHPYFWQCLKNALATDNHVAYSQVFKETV
Description: TLR7 inhibition reporter assay (HEK-Blue SEAP reporter, gardiquimod stimulation). The conditions noted are these: HEK-Blue cells overexpressing human TLR7, SEAP reporter, gardiquimod 7.5 μM, 22 hour incubation. Put shortly:
(§1)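 Screening used HEK-Blue cells overexpressing one human TLR (7, 8 or 9) and an IFN-β minimal promoter–NF-κB/AP-1 SEAP construct. Stimulation lasted 22 h at 37 °C with receptor-specific agonist: gardiquimod, R848 or ODN2006 at 7.5 μM, 15.9 μM and 5 nM.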
A general note: A reporter such as luciferase makes a cellular process visible.

A further experiment concerns the target T2, human TLR8 (Homo sapiens, UniProt Q9NR97).
T2 construct: host or cells: HEK-Blue cells
T2 sequence (Q9NR97 27-1041): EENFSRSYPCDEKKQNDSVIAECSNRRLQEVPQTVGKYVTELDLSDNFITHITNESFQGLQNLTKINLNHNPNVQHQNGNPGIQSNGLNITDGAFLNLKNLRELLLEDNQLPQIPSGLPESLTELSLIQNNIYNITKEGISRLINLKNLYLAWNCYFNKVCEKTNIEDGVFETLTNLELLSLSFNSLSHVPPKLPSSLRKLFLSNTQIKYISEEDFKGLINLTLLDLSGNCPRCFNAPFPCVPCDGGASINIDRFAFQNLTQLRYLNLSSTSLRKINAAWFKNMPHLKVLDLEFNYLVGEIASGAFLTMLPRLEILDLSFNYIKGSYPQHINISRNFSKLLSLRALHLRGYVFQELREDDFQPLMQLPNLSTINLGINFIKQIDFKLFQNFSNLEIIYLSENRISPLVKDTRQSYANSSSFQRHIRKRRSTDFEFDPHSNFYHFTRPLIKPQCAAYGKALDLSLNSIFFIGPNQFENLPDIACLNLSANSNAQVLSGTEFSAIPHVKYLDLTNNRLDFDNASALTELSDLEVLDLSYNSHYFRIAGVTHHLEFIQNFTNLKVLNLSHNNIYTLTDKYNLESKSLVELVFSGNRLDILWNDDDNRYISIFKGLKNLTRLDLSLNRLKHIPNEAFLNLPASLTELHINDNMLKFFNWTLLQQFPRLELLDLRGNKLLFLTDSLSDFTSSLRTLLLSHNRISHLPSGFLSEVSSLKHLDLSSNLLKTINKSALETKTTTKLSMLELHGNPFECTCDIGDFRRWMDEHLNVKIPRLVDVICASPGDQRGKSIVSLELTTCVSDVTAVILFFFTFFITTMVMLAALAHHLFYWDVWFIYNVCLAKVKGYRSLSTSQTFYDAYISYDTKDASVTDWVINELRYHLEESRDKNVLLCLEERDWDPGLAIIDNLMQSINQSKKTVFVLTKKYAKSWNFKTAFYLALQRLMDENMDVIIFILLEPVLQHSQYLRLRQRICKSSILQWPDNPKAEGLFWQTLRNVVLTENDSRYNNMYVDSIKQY
Description: TLR8 inhibition reporter assay (HEK-Blue SEAP reporter, R848 stimulation). As to conditions: HEK-Blue cells overexpressing human TLR8, SEAP reporter, R848 15.9 μM, 22 hour incubation. Put shortly: as §1

Another experiment concerns the target T3, human TLR9 (Homo sapiens, UniProt Q9NR96).
T3 construct: host or cells: HEK-Blue cells
T3 sequence (Q9NR96 26-1032): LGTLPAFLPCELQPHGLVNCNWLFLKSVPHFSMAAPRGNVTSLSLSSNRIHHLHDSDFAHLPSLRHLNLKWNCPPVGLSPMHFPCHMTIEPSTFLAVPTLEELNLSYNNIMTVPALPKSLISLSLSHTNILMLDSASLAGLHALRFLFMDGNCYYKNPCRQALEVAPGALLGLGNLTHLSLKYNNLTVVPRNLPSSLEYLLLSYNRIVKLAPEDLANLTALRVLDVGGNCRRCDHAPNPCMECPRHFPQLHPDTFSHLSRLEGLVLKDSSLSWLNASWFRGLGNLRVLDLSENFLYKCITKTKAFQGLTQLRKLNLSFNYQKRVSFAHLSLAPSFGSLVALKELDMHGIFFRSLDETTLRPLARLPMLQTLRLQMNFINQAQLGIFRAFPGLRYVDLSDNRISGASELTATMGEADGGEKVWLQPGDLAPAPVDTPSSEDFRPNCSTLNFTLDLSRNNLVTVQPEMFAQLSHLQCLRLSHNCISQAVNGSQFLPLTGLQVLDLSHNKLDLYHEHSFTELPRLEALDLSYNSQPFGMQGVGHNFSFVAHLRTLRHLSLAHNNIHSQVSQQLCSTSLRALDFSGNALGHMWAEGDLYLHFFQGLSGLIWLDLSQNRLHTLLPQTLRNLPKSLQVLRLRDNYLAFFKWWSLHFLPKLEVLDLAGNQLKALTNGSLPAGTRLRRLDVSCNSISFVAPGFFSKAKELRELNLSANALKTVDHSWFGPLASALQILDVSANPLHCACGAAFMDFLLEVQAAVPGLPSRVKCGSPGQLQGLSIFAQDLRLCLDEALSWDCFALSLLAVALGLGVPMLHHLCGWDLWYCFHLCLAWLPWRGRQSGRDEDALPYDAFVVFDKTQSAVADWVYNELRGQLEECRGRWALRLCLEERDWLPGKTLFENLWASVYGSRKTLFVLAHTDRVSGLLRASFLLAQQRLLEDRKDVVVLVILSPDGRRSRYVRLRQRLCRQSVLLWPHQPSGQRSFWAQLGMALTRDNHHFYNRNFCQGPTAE
The experiment is described as follows: TLR9 inhibition reporter assay (HEK-Blue SEAP reporter, ODN2006 stimulation). The conditions noted are these: HEK-Blue cells overexpressing human TLR9, SEAP reporter, ODN2006 5 nM, 22 hour incubation. Put shortly: as §1

The structures appear in SMILES notation. pIC50: −log10 of the molar value.

From patent US11447466B2, “Substituted indole compounds useful as inhibitors of TLR7/8/9” (BRISTOL-MYERS SQUIBB COMPANY, priority 2017, dated 2022) come the findings set out here.

For the compound `Cc1c(-c2[nH]c3ccc(C4CCN(CC5CCOCC5)CC4)cc3c2C(C)C)cn(C)c(=O)c1Cl` [Example 93, 3-chloro-5-(3-isopropyl-5-(1-((tetrahydro-2H-pyran-4-yl)methyl)piperidin-4-yl)-1H-indol-2-yl)-1,4-dimethylpyridin-2(1H)-one], the figures for the pIC50 on human TLR7, against human TLR8 and against human TLR9 were 8.30, 8.31 and 5.24, respectively.
In the same order, the values of `Cc1cc(-c2[nH]c3ccc(C4CCN(C)CC4)cc3c2C(C)C)cn(CC(F)F)c1=O` [Example 266, 1-(2,2-difluoroethyl)-5-(3-isopropyl-5-(1-methylpiperidin-4-yl)-1H-indol-2-yl)-3-methylpyridin-2(1H)-one] are 7.94, 7.80 and 5.35.
In the same order, the values of `Cc1nc(-c2[nH]c3ccc(C4CCN(C5COC5)CC4)cc3c2C(C)C)cn(C)c1=O` [Example 186, 5-(3-isopropyl-5-(1-(oxetan-3-yl)piperidin-4-yl)-1H-indol-2-yl)-1,3-dimethylpyrazin-2(1H)-one] are 6.95, 7.12 and 5.17.
In the same order, the values of `CCn1cc(-c2[nH]c3ccc(C4CCNCC4)cc3c2C(C)C)c(C)c(C)c1=O` [Example 26, 1-ethyl-5-(3-isopropyl-5-(piperidin-4-yl)-1H-indol-2-yl)-3,4-dimethylpyridin-2(1H)-one] are 7.92, 8.05 and 5.73.
As to `Cc1c(-c2[nH]c3ccc(C4CCN(CC(C)(C)O)CC4)c(F)c3c2C(C)C)cn(C)c(=O)c1Cl` [Example 327, 3-chloro-5-(4-fluoro-5-(1-(2-hydroxy-2-methylpropyl)piperidin-4-yl)-3-isopropyl-1H-indol-2-yl)-1,4-dimethylpyridin-2(1H)-one], the pIC50 (in general, the IC50 on a negative log10 scale, so that one unit is a factor of ten) against human TLR7 was 8.22; against human TLR8, 8.80; against human TLR9, 5.48.
In the same order, the values of `CC(C)c1c(-c2cc(C(F)(F)F)c(=O)n(C)c2)[nH]c2ccc(C3CCNCC3)cc12` [Example 41, 5-(3-isopropyl-5-(piperidin-4-yl)-1H-indol-2-yl)-1-methyl-3-(trifluoromethyl)pyridin-2(1H)-one] are 7.74, 6.80 and 5.95.
In the same order, the values of `Cc1c(-c2[nH]c3ccc(C4CCN(CC(=O)N(C)C)CC4)c(F)c3c2C(C)C)cn(C)c(=O)c1Cl` [Example 158, 2-(4-(2-(5-chloro-1,4-dimethyl-6-oxo-1,6-dihydropyridin-3-yl)-4-fluoro-3-isopropyl-1H-indol-5-yl)piperidin-1-yl)-N,N-dimethylacetamide] are 8.18, 8.59 and 5.45.
Regarding `CCCN1CCC(c2ccc3[nH]c(-c4cc(-c5ccncc5)c(=O)n(C)c4)c(C(C)C)c3c2)CC1` [Example 336, 5-(3-isopropyl-5-(1-propylpiperidin-4-yl)-1H-indol-2-yl)-1-methyl-[3,4′-bipyridin]-2(1H)-one], the negative-log IC50 (pIC50) on human TLR7 was 7.99; against human TLR8 it was 8.92; at human TLR9 it was 6.26.
In the same order, the values of `CC(=O)Nc1cccc(-c2cc(-c3[nH]c4ccc(C5CCNCC5)cc4c3C(C)C)cn(C)c2=O)c1` [Example 60, N-(3-(5-(3-isopropyl-5-(piperidin-4-yl)-1H-indol-2-yl)-1-methyl-2-oxo-1,2-dihydropyridin-3-yl)phenyl)acetamide] are 7.04, 6.68 and 5.51.
In the same order, the values of `Cc1cc(-c2[nH]c3ccc(C4CCNCC4)cc3c2C(C)C)cn(CCCO)c1=O` [Example 38, 1-(3-hydroxypropyl)-5-(3-isopropyl-5-(piperidin-4-yl)-1H-indol-2-yl)-3-methylpyridin-2(1H)-one] are 7.29, 7.52 and 5.52.
In the same order, the values of `Cc1cc(-c2[nH]c3ccc(C4CCNCC4)cc3c2C(C)C)nn(C)c1=O` [Example 11, 6-(3-isopropyl-5-(piperidin-4-yl)-1H-indol-2-yl)-2,4-dimethylpyridazin-3(2H)-one] are 8.28, 8.48 and 5.31.
For the compound `CCCCN1CCC(c2ccc3[nH]c(-c4cn(C)c(=O)c(Cl)c4C)c(C(C)C)c3c2)CC1` [Example 251, 5-(5-(1-butylpiperidin-4-yl)-3-isopropyl-1H-indol-2-yl)-3-chloro-1,4-dimethylpyridin-2(1H)-one], the pIC50 was 8.46 on human TLR7, 8.09 at human TLR8 and 5.45 on human TLR9.
In the same order, the values of `CC(C)c1c(-c2cc(-c3cccnc3)c(=O)n(C)c2)[nH]c2ccc(C3CCN(CC(=O)N(C)C)CC3)cc12` [Example 169, 2-(4-(3-isopropyl-2-(1-methyl-2-oxo-1,2-dihydro-[3,3′-bipyridin]-5-yl)-1H-indol-5-yl)piperidin-1-yl)-N,N-dimethylacetamide] are 7.92, 8.21 and 5.74.
